Reference: patent publication US20200237793A1, “IMMUNOMODULATORY OLIGOSACCHARIDES” (The Regents of the University of California, priority 2017, published 2020)

What was measured:
[1] = test system: bone marrow derived macrophages; assay: Pro-inflammatory cytokine expression in primary mouse cells; format: cell-based
Source text: (§1) Accordingly, the results with 3′SL translate to primary cells as well as to human macrophages.

[2] = test system: THP-1 monocytic cell line; assay: Pro-inflammatory cytokine expression in human monocytic cell line; format: cell-based; conditions: human THP-1
Source text: as §1

[3] = test system: collagen antibody-induced arthritis (CAIA) model; assay: Collagen antibody-induced arthritis (CAIA) model; format: in vivo, BALB/c mice
Description: Macrophages and the pro-inflammatory cytokines IL-6 and IL-1β are known to perform a major role in the development and progression of joint destruction in animal models and patients with RA. […] Next, it was asked whether or not the in vitro results translate to an in vivo model. 3′SL efficacy in a collagen antibody-induced arthritis (CAIA) model was tested in mice. In the CAIA model, arthritis is induced by systemic administration of a cocktail of monoclonal antibodies that target various regions of collagen type II, which is one of the major constituents of articular cartilage matrix proteins, followed by the administration of endotoxin (LPS) on day 3. The high uptake rate in the CAIA model and the capacity to synchronize the development of arthritis from the time of antibody injection, makes this a relatively straightforward model that is used to address questions of pathogenic mechanisms and to screen candidate therapeutic agents.
8-week old female BALB/c mice were injected with 1.5 mg of Arthrogen-CIA monoclonal antibody cocktail (Chondrex, Inc.). Three days later, the mice were injected with 25 μg of LPS. Beginning with the time of LPS administration and followed for the next 11 consecutive days, mice were orally gavaged thrice daily with either 3′SL (20 mg in saline) or saline alone as control. With the tester blinded to the study groups, arthritis in each limb was determined once per day. […] By adding together, the scores of all four limbs, the maximum score per mouse is 28. In addition, a caliper was placed across the ankle joint at the widest point to measure ankle thickness in both hind limbs daily. 14 days after antibody cocktail administration, mice were euthanized and hind paws collected and processed for histology. H&E—as well as Toluidine blue-stained sections were scored from 0 to 4 for inflammation, bone erosion and cartilage depletion based on a previously validated scoring system.

RAW 264.7 cells = assay: Pro-inflammatory cytokine mRNA expression (RT-PCR) in LPS-stimulated macrophages; format: cell-based, murine
Description: RAW246.7 cells were exposed to LPS either alone or in combination with either pooled human milk oligosaccharides (HMOs), or 3′-sialyllactose (3′SL) or 2′-fucosyllactose (2′FL). After 6 hours, IL-6 (A) and IL-1β (B) mRNA levels were measured by RT-PCR and are plotted as mean±standard deviation (n=8) relative the respective mRNA levels in cells that were exposed to LPS alone (**p<0.01; ***p<0.001). HMOs are a group of more than 150 different structurally distinct oligosaccharides and their composition follows a basic structural blueprint (C), containing five monosaccharide building blocks: glucose (dark gray circle), galactose (light gray circle), N-acetylglucosamine (dark gray square), fucose (gray triangle) and sialic acid (gray diamond). 3′SL contains lactose with sialic acid at the terminal end; 2′FL contains lactose with fucose at the terminal end.
HMOs were first isolated and purified from pooled human donor milk (pHMO) by using polymixin B affinity chromatography to remove any lipopolysaccharide (LPS) contamination. RAW 264.7 cells, a murine macrophage cell line, were then incubated with LPS (10 ng/mL) and pHMO (500 μg/mL) for 6 hours. RT-PCR was used to measure cytokine mRNA expression.
A multi-dimensional chromatography approach was used that separates pHMO first by charge and then by size. […]

[4] = hind paws, day 14, score 0 to 4, oral 20 mg thrice daily
[5] = oral gavage 20 mg in saline thrice daily, from LPS administration, vs saline

`CC(=O)N[C@H]1[C@H]([C@H](O)[C@H](O)CO)O[C@@](O[C@H]2[C@@H](O)[C@@H](CO)O[C@@H](O[C@H]3[C@H](O)[C@@H](O)C(O)O[C@@H]3CO)[C@@H]2O)(C(=O)O)C[C@@H]1O` (stereo partly shown) [3′SL, 3′-sialyllactose] was tested, and the pro-inflammatory cytokine expression [1] was “reduced”, the pro-inflammatory cytokine expression [2] was “reduced” and the adverse effects ([3]; 14-day study period, oral 20 mg thrice daily) was “No adverse effects were observed”. The “histology score for cartilage damage” value [3, 4] was “significantly lower”, the “histology score for erosion” value [3, 4] was “significantly lower” and the “histology score for inflammation” value [3, 4] was “significantly lower”. For the same compound, the “Baseline-corrected ankle thickness (paw swelling)” value [3, 5] was “significantly reduced”, the “clinical index score 28” value [3, 5] was “significantly reduced” and the “IL-6 and IL-1β mRNA expression” value (RAW 264.7 cells; LPS-activated macrophages, individual oligosaccharides) was “most effective in reducing”. For the same compound, the “IC50 (reducing IL-6 and IL-1β mRNA expression)” value (RAW 264.7 cells; dose-range finding studies) was “around 15 μg/mL”.
